In data set [1] the test system is PC-3. As to the kind of experiment: Cytotoxicity against human PC3 cells assessed as cell viability at 50 uM after 24 hrs by crystal violet method (reference value: 99.09 +/- 9.87%). The format is functional. As to conditions: PC-3, 24 h, read-out: Activity.
Data set [2] relates to PC-3. As to the kind of experiment: Cytotoxicity against human PC3 cells at 0.05 to 0.5 uM after 72 hrs by crystal violet method.
Data set [3] concerns PC-3. As to the kind of experiment: Cytotoxicity against human PC3 cells assessed as cell viability at 50 uM after 48 hrs by crystal violet method (reference value: 100.87 +/- 4.87%). As to conditions: PC-3, 48 h, read-out: Activity. It counts as functional.
Data set [4] relates to PC-3. As to the kind of experiment: Cytotoxicity against human PC3 cells assessed as cell viability at 50 uM after 72 hrs by crystal violet method (reference value: 95.69 +/- 7.66%). The format is functional. As to conditions: PC-3, 72 h, read-out: Activity.
For data set [5], the system named is PC-3. Put plainly: Cytotoxicity against human PC3 cells after 72 hrs by crystal violet method. As to conditions: PC-3, 72 h. It counts as functional, cell-based.
For data set [6], the system named is PC-3. As to the kind of experiment: Cytotoxicity against human PC3 cells assessed as cell viability at 500 nM after 72 hrs by crystal violet method. It counts as functional. The settings on record: PC-3, 72 h, read-out: Activity.
Data set [7] in a line: Induction of NO release in glutathione buffer assessed as nitrite level at 400 uM after 1 hr by Griess assay (reference value: 3.3 +/- 1.2 uM). The format is physicochemical. On the technique in general: Griess reagent forms a coloured azo dye with nitrite.
The nature of data set [8]: Induction of NO release in glutathione buffer at 400 uM after 1 hr by Griess assay relative to sulindac. It counts as physicochemical.
Data set [9] relates to PC-3. Put plainly: Cytotoxicity against human PC3 cells at 50 nM after 72 hrs by crystal violet method. It counts as functional, cell-based.

Active and inactive are the calls of the source. No cut-off for these calls is given here.

One may read the IC50 as the midpoint of a concentration-inhibition curve. Higher therefore signals lower potency.

As to `CSc1ccc(/C=C2/C(C)=C(CC(=O)NCCOC(=O)/N=c3/c[n+](-c4ccccc4)[n-]o3)c3cc(F)ccc32)cc1`, the viability at 50 µM in the data set with PC-3 [1] was determined as 57.6%; with PC-3 [3], 27.1%; with PC-3 [4] it was 17.7%. Further, in the data set with PC-3 [2], the outcome was inactive.
Regarding `CC1=C(CC(=O)NCCOC(=O)/N=c2/c[n+](-c3ccccc3)[n-]o2)c2cc(F)ccc2/C1=C\c1ccc(S(C)(=O)=O)cc1`, the results for the viability at 50 µM with PC-3 [1], in the data set with PC-3 [3] and with PC-3 [4] were 76.5%, 45.9% and 37.3%, respectively. Moreover, in the data set with PC-3 [2], the result was inactive.
In the case of `CC1=C(CC(=O)OCCOCCOc2no[n+]([O-])c2S(=O)(=O)c2ccccc2)c2cc(F)ccc2/C1=C\c1ccc([S+](C)[O-])cc1` (configuration not stated), the viability at 50 µM with PC-3 [1], with PC-3 [3] and in the data set on PC-3 [4] was 0% in each case. The half-maximal inhibitory concentration (IC50) in the data set with PC-3 [5] is 26 µM.
As for `CC1=C(CC(=O)NCCNC(=O)/N=c2/c[n+](-c3ccccc3)[n-]o2)c2cc(F)ccc2/C1=C\c1ccc(S(C)(=O)=O)cc1`, the viability at 50 µM with PC-3 [1] came to 86.1%; with PC-3 [3], 58.2%; in the data set on PC-3 [4], 55.5%. Also, the result in the data set on PC-3 [2] was inactive.
Consider `CC1=C(CC(=O)/N=c2\c[n+](-c3ccccc3)[n-]o2)c2cc(F)ccc2/C1=C\c1ccc([S+](C)[O-])cc1` (configuration not stated), for which the figures for the viability at 50 µM in the data set on PC-3 [1], in the data set on PC-3 [3] and in the data set on PC-3 [4] were 64.6%, 29.8% and 20.6%, respectively. Also, the outcome in the data set on PC-3 [2] was inactive.
With `CC1=C(CC(=O)OCCOc2no[n+]([O-])c2S(=O)(=O)c2ccccc2)c2cc(F)ccc2/C1=C\c1ccc([S+](C)[O-])cc1` (configuration not stated), the viability at 50 µM in the data set on PC-3 [1], in the data set on PC-3 [3] and with PC-3 [4] was 0% throughout. Further, in the data set with PC-3 [5], it took 27.9 µM to reach half-maximal inhibition (IC50).
For the molecule `CC1=C(CC(=O)NCCOC(=O)/N=c2/c[n+](-c3ccccc3)[n-]o2)c2cc(F)ccc2/C1=C\c1ccc([S+](C)[O-])cc1` (configuration not stated), the viability at 50 µM with PC-3 [1] is 76.7%; in the data set with PC-3 [3] it was 46.4%; in the data set with PC-3 [4] it was 41.4%. For the same molecule, the result with PC-3 [2] was inactive.
Turning to `CSc1ccc(/C=C2/C(C)=C(CC(=O)OCCCCOc3no[n+]([O-])c3S(=O)(=O)c3ccccc3)c3cc(F)ccc32)cc1`, the viability at 50 µM with PC-3 [1], in the data set with PC-3 [3] and in the data set with PC-3 [4] was 0% throughout. Besides, the viability at 0.5 µM with PC-3 [6] amounted to 9.17%. In addition, the Activity in data set [7] worked out at 33 µM; in data set [8], 8.2%. In the data set on PC-3 [5], this molecule displayed an IC50 of 40.3 µM.
As to `CSc1ccc(/C=C2/C(C)=C(CC(=O)OC(CO[N+](=O)[O-])CO[N+](=O)[O-])c3cc(F)ccc32)cc1`, the viability at 50 µM in the data set on PC-3 [1] came to 91.2%; in the data set with PC-3 [3], 92.3%; in the data set on PC-3 [4] it was 93.5%.
On to `CC1=C(CC(=O)OCC(CO[N+](=O)[O-])(CO[N+](=O)[O-])CO[N+](=O)[O-])c2cc(F)ccc2/C1=C\c1ccc(S(C)(=O)=O)cc1`, for which the viability at 50 µM is 101% with PC-3 [1], 84.5% with PC-3 [3] and 95.3% with PC-3 [4].
With `CC1=C(CC(=O)OCCCCCCOc2no[n+]([O-])c2S(=O)(=O)c2ccccc2)c2cc(F)ccc2/C1=C\c1ccc([S+](C)[O-])cc1` (configuration not stated), the viability at 50 µM with PC-3 [1], in the data set with PC-3 [3] and in the data set with PC-3 [4] was 0% each time. Also, the results for the Activity in [7] and in [8] were 54.4 µM and 13.6%, respectively. Moreover, in the data set with PC-3 [5], half-maximal inhibition (IC50) required 6.1 µM. Besides, the outcome with PC-3 [9] was Active.
For `CC1=C(CC(=O)OCCCOc2no[n+]([O-])c2S(=O)(=O)c2ccccc2)c2cc(F)ccc2/C1=C\c1ccc([S+](C)[O-])cc1` (configuration not stated), the viability at 50 µM in the data set with PC-3 [1], in the data set on PC-3 [3] and in the data set with PC-3 [4] was 0% each time.
As for `CC1=C(CC(=O)OCCCCCCO[N+](=O)[O-])c2cc(F)ccc2/C1=C\c1ccc([S+](C)[O-])cc1` (configuration not stated), the viability at 50 µM is 105% in the data set on PC-3 [1], 72.7% in the data set with PC-3 [3] and 88.1% with PC-3 [4].
Consider `CC1=C(CC(=O)OCCCCOc2no[n+]([O-])c2S(=O)(=O)c2ccccc2)c2cc(F)ccc2/C1=C\c1ccc([S+](C)[O-])cc1` (configuration not stated), for which the viability at 50 µM in the data set on PC-3 [1] was found to be 32.3%; in the data set on PC-3 [3], 21.8%; in the data set on PC-3 [4] it was 16.5%.
The corresponding values for `CC1=C(CC(=O)OCCCCO)c2cc(F)ccc2/C1=C\c1ccc(S(C)(=O)=O)cc1` are 87.4%, 81.5% and 86.6%.
In the case of `CC1=C(CC(=O)OCc2cccc(Oc3no[n+]([O-])c3S(=O)(=O)c3ccccc3)c2)c2cc(F)ccc2/C1=C\c1ccc([S+](C)[O-])cc1` (configuration not stated), the viability at 50 µM in the data set on PC-3 [1] was 71.8%; in the data set with PC-3 [3], 56.2%; in the data set with PC-3 [4], 51.9%.
Consider `CC1=C(CC(=O)O)c2cc(F)ccc2/C1=C\c1ccc([S+](C)[O-])cc1` (configuration not stated) [SULINDAC], for which the viability at 50 µM with PC-3 [1] was determined as 87.3%; in the data set with PC-3 [3], 101%; with PC-3 [4], 89.3%. Moreover, the Activity in [7] was 1.1 µM; in data set [8] it was less than 1%.
In the case of `CSc1ccc(/C=C2/C(C)=C(CC(=O)NCCNC(=O)/N=c3/c[n+](-c4ccccc4)[n-]o3)c3cc(F)ccc32)cc1`, the values for the viability at 50 µM in the data set on PC-3 [1], in the data set on PC-3 [3] and with PC-3 [4] were 66.5%, 34.7% and 21.3%, respectively. For the same molecule, the outcome in the data set on PC-3 [2] was inactive.
Consider `CC1=C(CC(=O)OCCOCCOc2no[n+]([O-])c2S(=O)(=O)c2ccccc2)c2cc(F)ccc2/C1=C\c1ccc(S(C)(=O)=O)cc1`, for which the viability at 50 µM in the data set on PC-3 [1], in the data set with PC-3 [3] and with PC-3 [4] was 0% each time.
`CC1=C(CC(=O)NCCNC(=O)/N=c2/c[n+](-c3ccccc3)[n-]o2)c2cc(F)ccc2/C1=C\c1ccc([S+](C)[O-])cc1` (configuration not stated): the viability at 50 µM in the data set with PC-3 [1] came out at 74%; in the data set with PC-3 [3], 46.7%; in the data set with PC-3 [4], 36.3%. Besides, in the data set with PC-3 [2], the result was inactive.
For the molecule `CSc1ccc(/C=C2/C(C)=C(CC(=O)OCCCCCCO[N+](=O)[O-])c3cc(F)ccc32)cc1`, the viability at 50 µM in the data set with PC-3 [1] was found to be 92.4%; in the data set on PC-3 [3] it was 85.1%; with PC-3 [4] it was 104%.
The corresponding values for `CC1=C(CC(=O)OCCCCO[N+](=O)[O-])c2cc(F)ccc2/C1=C\c1ccc([S+](C)[O-])cc1` (configuration not stated) are 58.8%, 35.5% and 24.5%.
In the case of `CSc1ccc(/C=C2/C(C)=C(CC(=O)OCCCOc3no[n+]([O-])c3S(=O)(=O)c3ccccc3)c3cc(F)ccc32)cc1`, the viability at 50 µM worked out at 34.9% with PC-3 [1], 21.2% in the data set with PC-3 [3] and 15.7% in the data set on PC-3 [4]. In the data set on PC-3 [5], this molecule showed an IC50 of 48.6 µM.
As to `CC1=C(CC(=O)OC/C=C\COc2no[n+]([O-])c2S(=O)(=O)c2ccccc2)c2cc(F)ccc2/C1=C\c1ccc([S+](C)[O-])cc1` (configuration not stated), the viability at 50 µM in the data set with PC-3 [1], in the data set on PC-3 [3] and in the data set with PC-3 [4] was 0% throughout. The Activity in [7] was determined as 51.1 µM; in [8] it was 12.8%. The molecule also came in with an IC50 in the data set with PC-3 [5] of 12.1 µM. In addition, the result with PC-3 [9] was Active.
With `CSc1ccc(/C=C2/C(C)=C(CC(=O)OCCOc3no[n+]([O-])c3S(=O)(=O)c3ccccc3)c3cc(F)ccc32)cc1`, the viability at 50 µM in the data set on PC-3 [1], in the data set on PC-3 [3] and with PC-3 [4] was 0% throughout. Also, the viability at 0.5 µM in the data set on PC-3 [6] stood at 11.9%. For the same molecule, the Activity in data set [7] was found to be 41.1 µM; in data set [8] it was 10.3%. For the same molecule, in the data set with PC-3 [5], the IC50 was found to be 41.4 µM.
As to `CC1=C(CC(=O)OC(CO[N+](=O)[O-])CO[N+](=O)[O-])c2cc(F)ccc2/C1=C\c1ccc([S+](C)[O-])cc1` (configuration not stated), the values for the viability at 50 µM in the data set with PC-3 [1], in the data set on PC-3 [3] and in the data set on PC-3 [4] were 46.5%, 44.9% and 30.2%, respectively.
Consider `CSc1ccc(/C=C2/C(C)=C(CC(=O)OCc3cccc(Oc4no[n+]([O-])c4S(=O)(=O)c4ccccc4)c3)c3cc(F)ccc32)cc1`, for which the viability at 50 µM with PC-3 [1] turned out to be 102%; in the data set with PC-3 [3], 79.7%; in the data set on PC-3 [4] it was 82.7%.
Consider `CC1=C(CC(=O)OCCCCOc2no[n+]([O-])c2S(=O)(=O)c2ccccc2)c2cc(F)ccc2/C1=C\c1ccc(S(C)(=O)=O)cc1`, for which the viability at 50 µM was found to be 67.9% with PC-3 [1], 49.9% in the data set on PC-3 [3] and 38.8% in the data set on PC-3 [4].
